The compounds below were run on Aorta (assay: Vasodilatory activity in phenylephrine-induced pre-contracted Wistar rat aortic ring assessed as relaxation at 10 '-4 M).
Assay type: functional
Set-up: scale not given: the % may be the effect or the level left

Compound	Activity [%]
CCCCC(=O)c1cc(OC)cc(OC)c1	50
CC(CC/N=C/c1ccccc1O)/N=C/c1ccccc1O (centres undefined)	50

The compounds below were run against cGMP-specific 3',5'-cyclic phosphodiesterase (Homo sapiens, UniProt O76074) (assay: Inhibition of PDE5 (unknown origin)).

IC50 [nM]	Compound
50	CC(C)CCc1nc2c([nH]1)C(=O)N(C)C1=N[C@@H]3CCC[C@@H]3N12
10	CCCCCCc1nc2c([nH]1)C(=O)N(C)C1=N[C@@H]3CCC[C@@H]3N12
800	CCCc1nc2c([nH]1)N1C(=N[C@@H]3CCC[C@@H]31)N(C)C2=O
2400	Cc1nc2c([nH]1)C(=O)N(C)C1=N[C@@H]3CCC[C@@H]3N12
4000	CN1C(=O)c2c(nc(Cc3ccccc3)n2Cc2ncc[nH]2)N2C1=N[C@@H]1CCC[C@@H]12
43	CN1C(=O)c2[nH]c(Cc3ccc(-c4ccccc4)cc3)nc2N2CC3(CCCC3)N=C12
800	CCCCCCc1nc2c(n1Cc1ccccc1)C(=O)N(C)C1=N[C@@H]3CCC[C@@H]3N12
6200	CN1C(=O)c2[nH]c(C(F)(F)F)nc2N2C1=N[C@@H]1CCC[C@@H]12
590	CN1C(=O)c2c(nc(CC3CCCCC3)n2Cc2ccccc2)N2C1=N[C@@H]1CCC[C@@H]12
6000	CN1C(=O)c2[nH]c(C#Cc3ccccc3)nc2N2C1=N[C@@H]1CCC[C@@H]12
11	CN1C(=O)c2c(nc(-c3ccccc3)n2Cc2ccccc2)N2CC3(CCCC3)N=C12
66	CN1C(=O)c2[nH]c(Cc3ccc(-c4ccccc4)cc3)nc2N2C1=N[C@@H]1CCC[C@@H]12
180	CN1C(=O)c2c(nc(Cc3ccccc3)n2Cc2ccccc2)N2C1=N[C@@H]1CCC[C@@H]12
4	CN1C(=O)c2c(nc(C#Cc3ccccc3)n2Cc2ccccc2)N2C1=N[C@@H]1CCC[C@@H]12
34	CN1C(=O)c2[nH]c(CC3CCCC3)nc2N2C1=N[C@@H]1CCC[C@@H]12
120	CN1C(=O)c2c(nc(CC3CCCC3)n2Cc2ccccc2)N2CC3(CCCC3)N=C12
10000	CN1C(=O)c2c(nc(Cc3ccccc3)n2CCO)N2C1=N[C@@H]1CCC[C@@H]12
1200	CN1C(=O)c2c(nc(CN3CCCC3)n2Cc2ccccc2)N2C1=N[C@@H]1CCC[C@@H]12
110	CN1C(=O)c2c(nc(Cc3ccccc3)n2CC2CCCCC2)N2C1=N[C@@H]1CCC[C@@H]12
2900	Cc1nc2c(n1Cc1ccccc1)N1CC3(CCCC3)N=C1N(C)C2=O
510	CCCc1nc2c(n1Cc1ccccc1)C(=O)N(C)C1=N[C@@H]3CCC[C@@H]3N12
200	CN1C(=O)c2c(nc(Cc3ccccc3)n2Cc2cccc(O)c2O)N2C1=N[C@@H]1CCC[C@@H]12
1000	COCc1nc2c(n1Cc1ccccc1)C(=O)N(C)C1=N[C@@H]3CCC[C@@H]3N12

IC50 [nM]	Compound
305	CN1C(=O)c2c(nc(Cc3ccc(-c4ccccc4)cc3)n2Cc2ccccc2)N2C1=N[C@@H]1CCC[C@@H]12
16000	CN1C(=O)c2[nH]c(CN3CCCC3)nc2N2C1=N[C@@H]1CCC[C@@H]12
19	CN1C(=O)c2[nH]c(CC3CCCCC3)nc2N2C1=N[C@@H]1CCC[C@@H]12
26	CN1C(=O)c2[nH]c(CC3CCCC3)nc2N2CC3(CCCC3)N=C12
560	CC(C)CCc1nc2c(n1Cc1ccccc1)C(=O)N(C)C1=N[C@@H]3CCC[C@@H]3N12
240	Cc1nc2c([nH]1)C(=O)N(C(C)C)C1=N[C@@H]3CCC[C@@H]3N12
3300	CN1C(=O)c2[nH]c(-c3ccccc3)nc2N2CC3(CCCC3)N=C12
275	CN1C(=O)c2c(nc(CC3CCCC3)n2Cc2ccccc2)N2C1=N[C@@H]1CCC[C@@H]12
200	CN1C(=O)c2c(nc(Cc3ccc(-c4ccccc4)cc3)n2Cc2ccccc2)N2CC3(CCCC3)N=C12
100	CCN1C(=O)c2[nH]c(C)nc2N2C1=N[C@@H]1CCC[C@@H]12
4500	CN1C(=O)c2c(nc(Cc3ccccc3)n2C)N2CC3(CCCC3)N=C12
5600	CN(C)Cc1nc2c(n1Cc1ccccc1)C(=O)N(C)C1=N[C@@H]3CCC[C@@H]3N12
610	CN1C(=O)c2[nH]c(CC3CC3)nc2N2C1=N[C@@H]1CCC[C@@H]12
420	CN1C(=O)c2c(nc(CC3CC3)n2Cc2ccccc2)N2C1=N[C@@H]1CCC[C@@H]12
400	CN1C(=O)c2c(nc(C(F)(F)F)n2Cc2ccccc2)N2C1=N[C@@H]1CCC[C@@H]12
26000	CN1C(=O)c2[nH]c(Cc3ncc[nH]3)nc2N2C1=N[C@@H]1CCC[C@@H]12
120	CN1C(=O)c2c(nc(Cc3ccccc3)n2Cc2ccccc2)N2CC3(CCCC3)N=C12
13000	COCc1nc2c([nH]1)N1C(=N[C@@H]3CCC[C@@H]31)N(C)C2=O
225	Cc1nc2c(n1Cc1ccccc1)C(=O)N(C)C1=N[C@@H]3CCC[C@@H]3N12
4300	CN1C(=O)c2c(nc(Cc3ccccc3)n2Cc2cccnc2)N2C1=N[C@@H]1CCC[C@@H]12
1500	CN1C(=O)c2c(nc(Cc3ncc[nH]3)n2Cc2ccccc2)N2C1=N[C@@H]1CCC[C@@H]12
19	CN1C(=O)c2[nH]c(Cc3ccccc3)nc2N2CC3(CCCC3)N=C12

Each compound was assayed on Aorta (assay: Vasodilatory activity in phenylephrine-induced pre-contracted Wistar rat aortic ring assessed as relaxation at 10 '-6 M).
Assay type: functional
Set-up: scale not given: the % may be the effect or the level left

Compound	Activity [%]
CCCCC(=O)c1cc(OC)cc(OC)c1	50

These compounds were tested on Aorta (assay: Vasodilatory activity in phenylephrine-induced pre-contracted Wistar rat aortic ring assessed as relaxation at 10 '-5 M).
Assay type: functional
Set-up: scale not given: the % may be the effect or the level left

Compound	Activity [%]
CCCc1nn(C)c2c(=O)[nH]c(-c3cc(S(=O)(=O)N4CCN(C)CC4)ccc3OCC)nc12	50
CCCCC(=O)c1cc(OC)cc(OC)c1	50
CCOC(=O)c1cnc2nc(N)ccc2c1O	50

The compounds below were run on Aorta (assay: Vasodilatory activity in phenylephrine-induced pre-contracted Wistar rat aortic ring assessed as relaxation at 10 '-2 M).
Assay type: functional
Set-up: scale not given: the % may be the effect or the level left

Compound	Activity [%]
CCCc1nn(C)c2c(=O)[nH]c(-c3cc(S(=O)(=O)N4CCN(C)CC4)ccc3OCC)nc12	50
CCCCC(=O)c1cc(OC)cc(OC)c1	50
CCOC(=O)c1cnc2nc(N)ccc2c1O	50

Reference: ChEMBL document CHEMBL3297680, “Pharmacophore based virtual screening, molecular docking and biological evaluation to identify novel PDE5 inhibitors with vasodilatory activity” (Bioorg Med Chem Lett, 2014)
